Test results from ChEMBL document CHEMBL5303573, “Mapping human microbiome drug metabolism by gut bacteria and their genes” (Nature, 2019).

Columns and labels:
[1] = The drug is tested on Bifidobacterium ruminantium strain: fecal isolate for biotransformation. The drug concentrations were measured before and after a 12-h incubation by liquid-chromatography-coupled mass spectrometry (LC–MS); conditions: 2 µM
[2] = The drug is tested on Bacteroides dorei strain: DSM17855 for biotransformation. The drug concentrations were measured before and after a 12-h incubation by liquid-chromatography-coupled mass spectrometry (LC–MS); conditions: phocaeicola dorei, 2 µM
[3] = The drug is tested on Bacteroides finegoldii strain: DSM17565 for biotransformation. The drug concentrations were measured before and after a 12-h incubation by liquid-chromatography-coupled mass spectrometry (LC–MS); conditions: 2 µM
[4] = The drug is tested on Bacteroides pectinophilus strain: ATCC43243 for biotransformation. The drug concentrations were measured before and after a 12-h incubation by liquid-chromatography-coupled mass spectrometry (LC–MS); conditions: 2 µM
[5] = The drug is tested on Bacteroides vulgatus strain: ATCC8482 for biotransformation. The drug concentrations were measured before and after a 12-h incubation by liquid-chromatography-coupled mass spectrometry (LC–MS); conditions: phocaeicola vulgatus, 2 µM
[6] = The drug is tested on Bacteroides sp. WH2 strain: WH2 for biotransformation. The drug concentrations were measured before and after a 12-h incubation by liquid-chromatography-coupled mass spectrometry (LC–MS); conditions: bacteroides sp. wh2, 12 h, 2 µM
[7] = The drug is tested on Blautia luti strain: DSM14534 for biotransformation. The drug concentrations were measured before and after a 12-h incubation by liquid-chromatography-coupled mass spectrometry (LC–MS); assay type: ADME; design: dose 2 uM, timepoint 0 vs 12 hours; conditions: 2 µM
[8] = The drug is tested on Eubacterium hallii strain: DSM3353 for biotransformation. The drug concentrations were measured before and after a 12-h incubation by liquid-chromatography-coupled mass spectrometry (LC–MS); conditions: anaerobutyricum hallii, 2 µM
[9] = The drug is tested on Ruminococcus torques strain: ATCC27756 for biotransformation. The drug concentrations were measured before and after a 12-h incubation by liquid-chromatography-coupled mass spectrometry (LC–MS); assay type: ADME; design: dose 2 uM, timepoint 0 vs 12 hours; conditions: 2 µM
[10] = The drug is tested on Enterobacter cancerogenus strain: ATCC35316 for biotransformation. The drug concentrations were measured before and after a 12-h incubation by liquid-chromatography-coupled mass spectrometry (LC–MS); conditions: 2 µM
[11] = The drug is tested on Providencia stuartii strain: ATCC25827 for biotransformation. The drug concentrations were measured before and after a 12-h incubation by liquid-chromatography-coupled mass spectrometry (LC–MS); conditions: 2 µM
[12] = bacteroides eggerthii, 12 h, 2 µM
Description: The drug is tested on Bacteroides eggerthii strain: DSM20697 for biotransformation. The drug concentrations were measured before and after a 12-h incubation by liquid-chromatography-coupled mass spectrometry (LC–MS)

[13] = segatella copri, 12 h, 2 µM
Description: The drug is tested on Prevotella copri strain: DSM18205 for biotransformation. The drug concentrations were measured before and after a 12-h incubation by liquid-chromatography-coupled mass spectrometry (LC–MS)

[14] = enterocloster bolteae, 12 h, 2 µM
Description: The drug is tested on Clostridium bolteae strain: ATCCBAA-613 for biotransformation. The drug concentrations were measured before and after a 12-h incubation by liquid-chromatography-coupled mass spectrometry (LC–MS)

[15] = The drug is tested on Bacteroides ovatus strain: ATCC8483 for biotransformation. The drug concentrations were measured before and after a 12-h incubation by liquid-chromatography-coupled mass spectrometry (LC–MS); conditions: 2 µM
[16] = The drug is tested on Odoribacter splanchnicus strain: fecal isolate for biotransformation. The drug concentrations were measured before and after a 12-h incubation by liquid-chromatography-coupled mass spectrometry (LC–MS); conditions: 2 µM
[17] = bacteroides thetaiotaomicron, 12 h, 2 µM
Description: The drug is tested on Bacteroides thetaiotaomicron strain: VPI-5482 for biotransformation. The drug concentrations were measured before and after a 12-h incubation by liquid-chromatography-coupled mass spectrometry (LC–MS)

[18] = bacteroides stercoris, 12 h, 2 µM
Description: The drug is tested on Bacteroides stercoris strain: ATCC43183 for biotransformation. The drug concentrations were measured before and after a 12-h incubation by liquid-chromatography-coupled mass spectrometry (LC–MS)

[19] = The drug is tested on Eubacterium rectale strain: ATCC33656 for biotransformation. The drug concentrations were measured before and after a 12-h incubation by liquid-chromatography-coupled mass spectrometry (LC–MS); conditions: agathobacter rectalis, 2 µM

Row | Compound | Bacterial Biotransformation [1] | Bacterial Biotransformation [2] | Bacterial Biotransformation [3] | Bacterial Biotransformation [4] | Bacterial Biotransformation [5] | Bacterial Biotransformation [6] | Bacterial Biotransformation [7] | Bacterial Biotransformation [8] | Bacterial Biotransformation [9] | Bacterial Biotransformation [10] | Bacterial Biotransformation [11] | Bacterial Biotransformation [12] | Bacterial Biotransformation [13] | Bacterial Biotransformation [14] | Bacterial Biotransformation [15] | Bacterial Biotransformation [16] | Bacterial Biotransformation [17] | Bacterial Biotransformation [18] | Bacterial Biotransformation [19]
1 | CN(C)CCc1c[nH]c2ccc(Cn3cncn3)cc12.O=C(O)c1ccccc1 [RIZATRIPTAN BENZOATE] | Compound NOT metabolized | Compound NOT metabolized | Compound NOT metabolized | Compound NOT metabolized | Compound NOT metabolized | Compound NOT metabolized | Compound NOT metabolized | Compound NOT metabolized | Compound NOT metabolized | Compound NOT metabolized | Compound NOT metabolized | Compound NOT metabolized | Compound NOT metabolized | Compound NOT metabolized |  |  |  |  | 
2 | CCN(CC)CCNC(C(=O)OCCC(C)C)c1ccccc1.Cl.Cl (centres undefined) | Compound NOT metabolized |  | Compound NOT metabolized | Compound NOT metabolized | Compound NOT metabolized | Compound NOT metabolized | Compound NOT metabolized | Compound NOT metabolized | Compound NOT metabolized | Compound NOT metabolized | Compound NOT metabolized | Compound NOT metabolized | Compound NOT metabolized | Compound NOT metabolized | Compound NOT metabolized | Compound NOT metabolized | Compound NOT metabolized |  | 
3 | N#Cc1ccc2[nH]cc(CCCCN3CCN(c4ccc5oc(C(N)=O)cc5c4)CC3)c2c1 [VILAZODONE] |  | Compound metabolized |  | Compound NOT metabolized | Compound metabolized | Compound metabolized | Compound NOT metabolized | Compound NOT metabolized | Compound NOT metabolized | Compound NOT metabolized | Compound metabolized | Compound metabolized | Compound metabolized | Compound NOT metabolized | Compound metabolized | Compound metabolized | Compound metabolized | Compound metabolized | 
4 | CCCc1nn(C)c2c(=O)[nH]c(-c3cc(S(=O)(=O)N4CCN(C)CC4)ccc3OCC)nc12.O=C(O)CC(O)(CC(=O)O)C(=O)O [SILDENAFIL CITRATE] |  |  | Compound NOT metabolized | Compound NOT metabolized | Compound NOT metabolized | Compound NOT metabolized | Compound NOT metabolized | Compound NOT metabolized | Compound NOT metabolized | Compound NOT metabolized | Compound NOT metabolized | Compound NOT metabolized | Compound NOT metabolized |  | Compound metabolized | Compound metabolized | Compound NOT metabolized | Compound NOT metabolized | Compound NOT metabolized
5 | CCN1CCCC1CNC(=O)c1cc(S(N)(=O)=O)ccc1OC (centres undefined) [SULPIRIDE] |  | Compound NOT metabolized | Compound NOT metabolized | Compound NOT metabolized | Compound NOT metabolized | Compound NOT metabolized | Compound NOT metabolized | Compound NOT metabolized | Compound NOT metabolized | Compound NOT metabolized | Compound NOT metabolized | Compound NOT metabolized |  | Compound NOT metabolized | Compound NOT metabolized |  |  | Compound NOT metabolized | Compound NOT metabolized
6 | Br.CN1CCC[C@@H]1Cc1c[nH]c2ccc(CCS(=O)(=O)c3ccccc3)cc12 [ELETRIPTAN HYDROBROMIDE] | Compound NOT metabolized | Compound NOT metabolized | Compound NOT metabolized | Compound NOT metabolized | Compound NOT metabolized | Compound NOT metabolized | Compound NOT metabolized | Compound NOT metabolized | Compound NOT metabolized |  | Compound NOT metabolized | Compound NOT metabolized | Compound NOT metabolized | Compound NOT metabolized | Compound NOT metabolized | Compound NOT metabolized |  | Compound NOT metabolized | Compound NOT metabolized
7 | CC1=C(CC(=O)O)c2cc(F)ccc2/C1=C\c1ccc([S+](C)[O-])cc1 (centres undefined) | Compound NOT metabolized | Compound NOT metabolized | Compound NOT metabolized | Compound NOT metabolized | Compound NOT metabolized | Compound NOT metabolized | Compound NOT metabolized | Compound NOT metabolized | Compound NOT metabolized | Compound NOT metabolized | Compound NOT metabolized | Compound NOT metabolized | Compound NOT metabolized | Compound NOT metabolized | Compound NOT metabolized | Compound NOT metabolized | Compound NOT metabolized | Compound NOT metabolized | 
8 | c1ccc2[nH]c(-c3cscn3)nc2c1 [THIABENDAZOLE] | Compound NOT metabolized | Compound NOT metabolized | Compound NOT metabolized | Compound NOT metabolized |  | Compound NOT metabolized | Compound NOT metabolized | Compound NOT metabolized | Compound NOT metabolized | Compound NOT metabolized | Compound NOT metabolized | Compound NOT metabolized | Compound NOT metabolized | Compound NOT metabolized |  |  | Compound NOT metabolized | Compound NOT metabolized | Compound NOT metabolized
9 | Cc1ccc(S(=O)(=O)NC(=O)NN2CCCCCC2)cc1 [TOLAZAMIDE] | Compound metabolized | Compound metabolized |  | Compound metabolized | Compound metabolized | Compound NOT metabolized | Compound NOT metabolized | Compound metabolized | Compound NOT metabolized | Compound NOT metabolized |  | Compound metabolized | Compound metabolized | Compound NOT metabolized | Compound metabolized | Compound metabolized | Compound metabolized | Compound metabolized | 
